From US20260035338A1, “AMINO LIPID COMPOUND AND LIPID NANOPARTICLE FOR DELIVERING BIOACTIVE INGREDIENT” (SHENZHEN SHENXIN BIOTECHNOLOGY CO., LTD., priority 2022, published 2026)

Test system: BALB/c mice
Assay: In vivo delivery of Fluc mRNA-encapsulating LNP formulations, luciferase signal by In Vivo Imaging System (IVIS)
Conditions: tail vein injection (IV) 70 μL, female BALB/c mice, 6 hours after injection; for Average number of photons (Total in-vivo flux): LNP formulation encapsulating Fluc mRNA (Lipid:DSPC:CHO-HP:M-DMG-2000 48:10:40.5:1.5); for Average number of photons (Liver) / Average number of photons (Spleen): LNP formulation encapsulating Fluc mRNA
Procedure: Animal preparation: Female BALB/c mice of 6-8 weeks old were selected and raised in an SPF grade breeding room. Animal testing was conducted in strict accordance with the guidelines of national health institutions and animal ethics requirements.
In vivo Delivery: prior to injection of the test LNP formulation, the LNP formulation was gently and repeatedly inverted to thoroughly mix the sample of the formulation. A corresponding amount of the LNP formulation was aspirated with a 1 ml insulin syringe, and the LNP formulation was injected by tail vein injection (IV), with 3 mice in duplicate per formulation. Each mouse was injected with 70 μL of the corresponding LNP formulation encapsulating the luciferase mRNA (Fluc mRNA) prepared in Experimental Example 1.
6 hours after injection of LNP formulations, mice were injected with 200 μL D-Luciferin luciferase developing substrate (Catalog No. 122799; Manufacturer: Perkin Elmer). After the substrate was injected, the mice were anesthetized with isoflurane inhalation, and the injection time of luciferase developing substrate was recorded.
The encapsulation efficiency of the lipid nanoparticle encapsulating luciferase mRNA (Fluc mRNA) with a representative amino lipid compound and the fluorescence expression intensity induced by the same are shown in Table 4, with the LNP formulation containing SM-102, 1001 or ALC-0315 as a control LNP formulation. The preparation method of the control LNP formulation was basically the same as that of the LNP formulations in Experimental Example 1, with the difference lying in that the amino lipid compounds of the present disclosure were replaced with SM-102, 1001 or ALC-0315 in the preparation of the control LNP formulation.

SMILES | Average number of photons (Total in-vivo flux) | Average number of photons (Liver) | Average number of photons (Spleen)
CCCCCCOC(CCCOC(=O)CCCCCCCCC(CCCCCCCCC(=O)OCCCC(OCCCCCC)OCCCCCC)N(CCCN(C)C)C(C)=O)OCCCCCC [compound 451] | 2.86E+07 | 4.63E+06 | 1.74E+07
CCCCCCOC(CCCOC(=O)CCCCCCCCC(CCCCCCCCC(=O)OCCCC(OCCCCCC)OCCCCCC)OC(=O)OCCCN1CCCC1)OCCCCCC [compound 396] | 1.85E+08 | 3.24E+07 | 9.78E+05
CCCCCCCCOCCCC(=O)N(CCCN(C)C)C(CCCCCCCCC(=O)OCCCC(OCCCCCC)OCCCCCC)CCCCCCCCC(=O)OCCCC(OCCCCCC)OCCCCCC [compound 449] | 1.65E+08 | 2.94E+07 | 7.31E+06
CCCCCCCOC(CCCOC(=O)CCCCCCCCC(CCCCCCCCC(=O)OCCCC(OCCCCCCC)OCCCCCCC)OC(=O)N(CCCC(=O)OCCCCC)CCCN(C)C)OCCCCCCC [compound 381] | 2.46E+08 | 4.40E+07 | 1.96E+07
CCCCCCCCCOC(CCCOC(=O)CCCCCCCCC(CCCCCCCCC(=O)OCCCC(OCCCCCC)OCCCCCC)OC(=O)OCCCN(C)C)OCCCCCCCCC (stereo not drawn) [compound 856] | 3.40E+07 | 9.34E+06 | 3.58E+05
CCCCCCCCCOC(CCCOC(=O)CCCCCCCCC(CCCCCCCCC(=O)OCCCC(OCCCCCC)OCCCCCC)OC(=O)OCCCN(CC)CC)OCCCCCCCCC (stereo not drawn) [compound 867] | 2.15E+07 | 4.12E+06 | 1.36E+05
CCCCCCOC(CCCOC(=O)CCCCCCCCC(CCCCCCCCC(=O)OCCCC(OCCCCCC)OCCCCCC)N(CCCN(C)C)C(=O)COC)OCCCCCC [compound 450] | 4.38E+07 | 7.96E+05 | 3.18E+06
CCCCCCCCCCCOC(=O)CCCCCN(CCO)CCCCCCCC(=O)OC(CCCCCCCC)CCCCCCCC [SM-102, reference compound] | 3.00E+08 | 6.19E+07 | 6.42E+06
CCCCCCCOC(CCCOC(=O)CCCCCCCCC(CCCCCCCCC(=O)OCCCC(OCCCCC)OCCCCC)OC(=O)OCCCN(CC)CC)OCCCCCCC (stereo not drawn) [compound 862] | 8.57E+07 | 1.53E+07 | 6.67E+05
CCCCCCOC(CCCOC(=O)CCCCCCCCC(CCCCCCCCC(=O)OCCCC(OCCCCCC)OCCCCCC)OC(=O)N(CCCC(=O)OCCCCC)CCCN(C)C)OCCCCCC [compound 380] | 4.05E+08 | 7.25E+07 | 6.79E+07
CCCCCCOC(CCCOC(=O)CCCCCCCCC(CCCCCCCCC(=O)OCCCC(OCCCCCC)OCCCCCC)N(CCCN(C)C)C(=O)CCC)OCCCCCC [compound 452] | 3.27E+08 | 4.94E+07 | 2.22E+07
CCC/C=C\COC(=O)CCCOC(=O)CCCCCCCCC(CCCCCCCCC(=O)OCCCC(OC/C=C\CCC)OC/C=C\CCC)OC(=O)OCCCN(CC)CC (stereo not drawn) [compound 438] | 5.78E+07 | 8.47E+06 | 1.07E+06
CCC/C=C\COC(CCCOC(=O)CCCCCCCCC(CCCCCCCCC(=O)OCCCC(OC/C=C\CCC)OC/C=C\CCC)OC(=O)OCCCN(CC)CC)OC/C=C\CCC [compound 392] | 8.20E+07 | 1.50E+07 | 6.65E+05
CCCCCCOC(CCOC(=O)CCCCCCCCC(CCCCCCCCC(=O)OCCC(OCCCCCC)OCCCCCC)OC(=O)OCCCN(C)C)OCCCCCC [compound 2035] | 1.49E+08 | 3.12E+07 | 7.61E+05
CCCCCCCOC(CCCOC(=O)CCCCCCCCC(CCCCCCCCC(=O)OCCCC(OCCCCCCC)OCCCCCCC)OC(=O)OCCCN(CC)CC)OCCCCCCC [compound 383] | 6.10E+07 | 8.57E+06 | 1.53E+06
CCCCCCCCCOC(CCCOC(=O)CCCCCCCCC(CCCCCCCCC(=O)OCCCC(OCCCCCCC)OCCCCCCCC)OC(=O)OCCCN(CC)CC)OCCCCCCCCC (stereo not drawn) [compound 869] | 1.22E+07 | 2.15E+06 | 5.40E+04
CCCCCOC(CCCOC(=O)CCCCCCCCC(CCCCCCCCC(=O)OCCCC(OCCCCC)OCCCCC)OC(=O)OCCCN(CC)CC)OCCCCC [compound 387] | 6.66E+07 | 7.15E+06 | 6.77E+05
CCCCCCOC(CCCOC(=O)CCCCCCC(CCCCCCC(=O)OCCCC(OCCCCCC)OCCCCCC)OC(=O)OCCCN(CC)CC)OCCCCCC [compound 2044] | 4.94E+07 | 6.90E+06 | 1.18E+06
CCCCCCCCOC(CCCOC(=O)CCCCCCCCC(CCCCCCCCCNC(=O)OCC(OCCCCCC)OCCCCCC)OC(=O)OCCCN(CC)CC)OCCCCCCCC (stereo not drawn) [compound 458] | 1.29E+08 | 2.69E+07 | 2.60E+06
CCCCCCCCOC(CCCOC(=O)CCCCCCCCC(CCCCCCCCC(=O)OCCCC(OCCCCCCCC)OCCCCCCCC)OC(=O)OCCCN(CC)CC)OCCCCCCCC [compound 859] | 2.31E+07 | 3.71E+06 | 7.21E+04
CCCCCCCCC(CCCCCC)C(=O)OCCCCCCN(CCCCO)CCCCCCOC(=O)C(CCCCCC)CCCCCCCC (stereo not drawn) [ALC-0315, reference compound] | 6.39E+08 | 1.23E+08 | 3.45E+06
CCCCCCCC#CCOC(CCCOC(=O)CCCCCCCCC(CCCCCCCCC(=O)OCCCCCCCCCCOC)OC(=O)OCCCN(CC)CC)OCC#CCCCCCCC (stereo not drawn) [compound 439] | 5.87E+07 | 1.25E+07 | 1.96E+06
CCCCC/C=C\C/C=C\CCCCCCCC(=O)OCC(COCCCCC(OCCCCCCCC)OCCCCCCCC)COC(=O)OCCCN(CC)CC (stereo not drawn) [compound 1248] | 8.20E+07 | 1.79E+07 | 3.48E+06
CCCCCCCCC(=O)OCCCCCCCCOC(=O)CCCCCCCCC(CCCCCCCCC(=O)OCCCC(OCCCCCC)OCCCCCC)OC(=O)OCCCN(CC)CC (stereo not drawn) [compound 441] | 3.09E+07 | 5.62E+06 | 5.52E+05
CCCCCCOC(CCCOC(=O)CCCCCCCCC(CCCCCCCCC(=O)OCCCCCCCC(=O)OCC)OC(=O)OCCCN(CC)CC)OCCCCCC (stereo not drawn) [compound 436] | 2.50E+07 | 6.68E+06 | 5.08E+05
CCCCCCOC(CCCCOC(=O)CCCCCCCCC(CCCCCCCCC(=O)OCCCCC(OCCCCCC)OCCCCCC)OC(=O)OCCCN(C)C)OCCCCCC [compound 2036] | 5.60E+07 | 1.04E+07 | 5.75E+05
CCCCCCCOC(CCCOC(=O)CCCCCCCCC(CCCCCCCCC(=O)OCCCC(OCCCCC)OCCCCC)OC(=O)OCCCN(C)C)OCCCCCCC (stereo not drawn) [compound 851] | 1.28E+08 | 2.21E+07 | 1.93E+06
